Results: the supplement of paper PMC8612539
Converted amounts (≈) assume the structure as drawn.

Tested on: Escherichia coli
Test: minimum inhibitory concentration (MIC)
Method: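 Broth microdilution MIC (Sensititre BOPO7F bovine plate, CLSI methods) of 19 antimicrobials against field isolates of P. multocida, M. haemolytica, H. somni (deep nasopharyngeal swabs) and E. coli, Enterococcus spp. (rectal swabs) from weaned dairy heifers. Incubation 16-24 h at 35 C. MIC is the lowest concentration preventing visible growth. Values with <= or > lie at the tested range limits. Trimethoprim-sulfamethoxazole is given as the trimethoprim component of a 1:19 mixture.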

CCCNC[C@]1(O)[C@H](C)O[C@@H](O[C@H]2[C@H](C)[C@@H](O[C@@H]3O[C@H](C)C[C@H](N(C)C)[C@H]3O)[C@](C)(O)C[C@@H](C)CN[C@H](C)[C@@H](O)[C@](C)(O)[C@@H](CC)OC(=O)[C@@H]2C)C[C@@]1(C)OC [Tulathromycin]
Settings	minimum inhibitory concentration [µg/mL]
isolate (source animal id): 8	≤ 8
isolate (source animal id): 9	16 (≈ 19.8 µM)
isolate (source animal id): 10	16 (≈ 19.8 µM)
isolate (source animal id): 11	≤ 8
isolate (source animal id): 12	≤ 8
isolate (source animal id): 13	≤ 8
isolate (source animal id): 14	≤ 8
isolate (source animal id): 15	≤ 8
isolate (source animal id): 16	≤ 8
isolate (source animal id): 98	≤ 8
isolate (source animal id): 99	≤ 8
isolate (source animal id): 100	≤ 8
isolate (source animal id): 101	≤ 8
isolate (source animal id): 102	≤ 8
isolate (source animal id): 103	≤ 8
isolate (source animal id): 104	16 (≈ 19.8 µM)
isolate (source animal id): 105	≤ 8
isolate (source animal id): 106	16 (≈ 19.8 µM)
isolate (source animal id): 107	16 (≈ 19.8 µM)
isolate (source animal id): 108	16 (≈ 19.8 µM)
isolate (source animal id): 109	≤ 8
isolate (source animal id): 110	≤ 8
isolate (source animal id): 111	≤ 8
isolate (source animal id): 112	≤ 8
isolate (source animal id): 113	≤ 8
isolate (source animal id): 114	≤ 8
isolate (source animal id): 115	64 (≈ 79.4 µM)
isolate (source animal id): 116	≤ 8
isolate (source animal id): 117	16 (≈ 19.8 µM)
isolate (source animal id): 118	≤ 8
isolate (source animal id): 119	32 (≈ 39.7 µM)
isolate (source animal id): 120	≤ 8
isolate (source animal id): 121	≤ 8
isolate (source animal id): 122	≤ 8
isolate (source animal id): 123	≤ 8
isolate (source animal id): 124	16 (≈ 19.8 µM)
isolate (source animal id): 125	≤ 8
isolate (source animal id): 126	16 (≈ 19.8 µM)
isolate (source animal id): 127	16 (≈ 19.8 µM)
isolate (source animal id): 128	≤ 8
isolate (source animal id): 129	≤ 8
isolate (source animal id): 130	≤ 8
isolate (source animal id): 131	≤ 8
isolate (source animal id): 132	≤ 8
isolate (source animal id): 133	≤ 8
isolate (source animal id): 134	≤ 8
isolate (source animal id): 135	≤ 8
isolate (source animal id): 136	≤ 8
isolate (source animal id): 137	≤ 8
isolate (source animal id): 138	32 (≈ 39.7 µM)
isolate (source animal id): 139	≤ 8
isolate (source animal id): 140	≤ 8
isolate (source animal id): 141	≤ 8
isolate (source animal id): 142	≤ 8
isolate (source animal id): 143	16 (≈ 19.8 µM)
isolate (source animal id): 144	16 (≈ 19.8 µM)
isolate (source animal id): 145	16 (≈ 19.8 µM)
isolate (source animal id): 146	16 (≈ 19.8 µM)
isolate (source animal id): 147	≤ 8
isolate (source animal id): 148	≤ 8
isolate (source animal id): 149	≤ 8
isolate (source animal id): 150	≤ 8
isolate (source animal id): 151	≤ 8
isolate (source animal id): 152	≤ 8
isolate (source animal id): 153	≤ 8
isolate (source animal id): 154	≤ 8
isolate (source animal id): 155	≤ 8
isolate (source animal id): 156	≤ 8
isolate (source animal id): 157	≤ 8
isolate (source animal id): 158	≤ 8
isolate (source animal id): 159	≤ 8
isolate (source animal id): 160	≤ 8
isolate (source animal id): 161	≤ 8
isolate (source animal id): 162	≤ 8
isolate (source animal id): 163	16 (≈ 19.8 µM)
isolate (source animal id): 164	≤ 8
isolate (source animal id): 165	≤ 8
isolate (source animal id): 166	≤ 8
isolate (source animal id): 167	16 (≈ 19.8 µM)
isolate (source animal id): 168	≤ 8
isolate (source animal id): 169	≤ 8
isolate (source animal id): 170	≤ 8
isolate (source animal id): 171	≤ 8
isolate (source animal id): 172	≤ 8
isolate (source animal id): 173	≤ 8
isolate (source animal id): 174	≤ 8
isolate (source animal id): 175	16 (≈ 19.8 µM)
isolate (source animal id): 176	≤ 8
isolate (source animal id): 177	≤ 8
isolate (source animal id): 178	≤ 8
isolate (source animal id): 179	≤ 8
isolate (source animal id): 180	≤ 8
isolate (source animal id): 181	≤ 8
isolate (source animal id): 182	16 (≈ 19.8 µM)
isolate (source animal id): 183	≤ 8
isolate (source animal id): 184	≤ 8
isolate (source animal id): 185	16 (≈ 19.8 µM)
isolate (source animal id): 186	≤ 8
isolate (source animal id): 187	≤ 8
isolate (source animal id): 188	≤ 8
